Experimental data taken from article doi:10.1101/2025.02.17.638454, “Synergistic RAS-MAPK and AKT Activation in MYC-Driven Tumors via Adjacent PVT1 Rearrangements” (bioRxiv, 2025).
No end group written: not given here.

Legend:
Assay type in all cases: cell-based, human
MYC [1] = assay: q-RT-PCR of MYC transcript in COLO-320DM; conditions: COLO320DM, induction of HNB (-/+ Dox); n=3, unpaired t-test, 0.0011
Method: Total RNA was extracted with the TRIzol (Roche, Indianapolis, IN) as described by the manufacturer and complementary DNA synthesis, 1 μg of total RNA was reverse transcribed by using the GoScriptTM Reverse Transcription Mix, Random Primer Protocol (Promega, Madison, WI). Real-time PCR was run in triplicate using PowerUpTM SYBRTM Green Master Mix (Thermo Fisher Scientific), following the manufacturer’s instructions. Real-time PCR amplification monitoring was performed using the CFX96 Touch Real-Time PCR Detection System (Bio-Rad). Data were expressed as relative mRNA levels normalized to the GAPDH, served as endogenous normalization control expression levels in each sample, and are represented as mean ± standard error of the mean between 2 independent experiments unless otherwise indicated in the figure legend. The primer sequences are listed in the Supplementary Table.
The HNB ORF and eGFP (control) were cloned in an inducible lentivirus expression, TRE-gateway plasmid (pLIX_403, Addgene, #41395). Lentivirus was produced in HEK293T cells using the protocol described above. […] The protein lysates were collected and quantified using the previously described protocol. […] Bound proteins were detected with horseradish-peroxidase–conjugated secondary antibodies (Cell Signaling Technologies) and SuperSignal West Femto (Thermo Fisher Scientific). […]

MYC [2] = assay: Western blot of MYC in SK-PN-DW; conditions: si.CircPVT1 vs si.Ctrl, n=3, unpaired t test, 0.0049
Method: For whole-cell lysate, the cell pellet was resuspended in RIPA buffer (Cell Signaling Technologies, Danvers, MA) supplemented with a protease inhibitor cocktail (Cell Signaling Technologies) and incubated on ice for 20 minutes. The lysate was then centrifuged at 14,000 revolutions/minute for 10 minutes at 4°C, and the supernatant was harvested. Protein concentration was quantified by BCA Protein Assay Kit (Thermo Fisher Scientific) as per kit protocol. Next, 20 μg of whole-cell lysate was electrophoresed on a 4%–20% gradient polyacrylamide gel with SDS (Bio-Rad, Hercules, CA) and electroblotted onto polyvinylidene difluoride membranes (Bio-Rad). Membranes were blocked in Tris-buffered saline with 5% nonfat milk and 0.1% Tween and probed with antibodies. Bound proteins were detected with horseradish-peroxidase–conjugated secondary antibodies (Cell Signaling Technologies) and SuperSignal West Femto (Thermo Fisher Scientific). […]

SK-PN-DW cells = assay: Proliferation assay SK-PN-DW; conditions: si.CircPVT1 vs si.Ctrl, n=3, two-way ANOVA, P<0.0001
Excerpt: Cancer cell lines: COLO-320DM, SK-PN-DW, U2OS, BxPC-3, DU145, SKBR-3 and, NCI-H1792 were obtained from American Type Culture Collection (Rockville, MD) and grown in their required growth medium per the American Type Culture Collection description. D458 and MB002 were obtained from Dr. Michael Taylor’s lab at SickKids hospital, Toronto. Cell line identity for the master stocks were verified by STR genotyping (IDEXX BioResearch)

Substance	MYC mRNA level (MYC [1])	MYC protein (MYC [2])	cellular proliferation (SK-PN-DW cells)
MKTQLGAVKGFLHV [HNB]	significantly reduced MYC expression at the mRNA as well as the protein levels		
si.CircPVT1: siRNA targeting the junction sequence of CircPVT1, 5’-UGGGCUUGAGGCCUGAUCUUU-3’ (other strand not given here)		significant reduction of MYC protein	reduced cellular proliferation
